In US20030134901A1, “Lipoxin compounds and their use in treating cell proliferative disorders” (priority 1993, published 2003):

Columns and labels:
[1] = target: T1, LXA4 specific binding sites of differentiated HL-60 cells (Homo sapiens, UniProt P25090); assay: 3H-LXA4 specific binding to differentiated HL-60 cells; details: competition, competitor 300 nM where printed
T1 construct: endogenous in cells; host or cells: HL-60 cells differentiated with DMSO, retinoic acid or PMA; intact cells
T1 sequence (P25090 1-351): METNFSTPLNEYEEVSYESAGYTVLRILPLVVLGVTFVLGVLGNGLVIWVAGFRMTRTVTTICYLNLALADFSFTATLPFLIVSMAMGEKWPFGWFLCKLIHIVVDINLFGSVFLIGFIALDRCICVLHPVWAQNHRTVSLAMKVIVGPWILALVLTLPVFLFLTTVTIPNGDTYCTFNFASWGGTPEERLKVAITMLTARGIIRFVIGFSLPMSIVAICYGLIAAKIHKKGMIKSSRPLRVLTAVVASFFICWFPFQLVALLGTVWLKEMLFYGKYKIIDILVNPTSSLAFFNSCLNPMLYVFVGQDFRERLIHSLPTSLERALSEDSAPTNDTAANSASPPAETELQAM
Protocol: Preparation of [11,12-^3H]LXA4. Tritiation of 11,12-acetylenic LXA4 methyl ester was carried out under a custom tritiation service (NET-259:92-2326) by New England Nuclear (Boston, Mass.). Briefly, 11,12-acetylene methyl ester was characterized by UV absorbance and reverse-phase HPLC as in (Nicolaou, K. C. et al. (1985) J. Am. Chem. Soc. 107:7515) and exposed to tritium atmosphere in methylene chloride at room temperature. This incubation was stirred in the presence of Lindlar catalyst (1.0 mg from Fluka Chemicals) for˜1 h. The resulting mixture was stored in methanol and isolated using RP-HPLC. Tritiated products were chromatographed as methyl esters utilizing a gradient HPLC system equipped with a photodiode array rapid spectral detector (Serhan, C. N., Methods in Enzymology: Arachidonate Related Lipid Mediators, in Murphy R. C., Fitzpatrick, F. (eds.), vol. 187. Orlando, Fla., Academic, (1990), p. 167). This mixture contained both [11,12-^3H]LXA4 and [11,12-^3H]-11-trans-LXA4 methyl esters (˜1:3 ratio) as determined by coelution with synthetic standards. After RP-HPLC, fractions containing [11,12-^3H]LXA4 were collected, and extracted into ethyl acetate. The free acid was prepared by LiOH saponification (Fiore, S. et al. (1992) J. Biol. Chem. 267:16168). Material from these fractions, when injected into UV-electrochemical detection HPLC, gave greater than 90% of radioactivity associated with a tetraene-containing product that coeluted with synthetic LXA4. Materials that eluted with the retention time of authentic LXA4 in two HPLC systems were taken for binding experiments. The specific activity calculated for [11,12-^3H]LXA4 was 40.5 Ci/mmole.
Cell cultures and differentiation. HL-60 cells were seeded in RPMI medium supplemented with 100 U/ml penicillin, 100 μg/ml streptomycin, and 10% fetal calf serum (Hyclone, Logan, Utah), incubated at 37° C. with 5% CO2 atmosphere in 250 ml flasks. Individual flasks containing ˜[…] next received dimethyl sulfoxide (DMSO) (1.12% v/v, 120 h) or retinoic acid (RA) (1 μM, 120 h) or phorbol myristate acetate (PMA) (20 nM, 48 h). Before performing binding assays, cells were washed twice in phosphate buffered saline (PBS), Ca^2+- and Mg^2+-free, enumerated and suspended at 20×10^6 cells/ml in Tris buffer (10 mM), pH 7.4 (Fiore, S. et al.(1992) J. Biol. Chem. 267:16168). Nitro blue tetrazolium reduction was performed to monitor induction of polymorphonuclear phenotype as in (Imaizumi, M. and Breitman, T. R. (1986) Blood 67:1273), and cell adherence was determined for induction of macrophage-like phenotype (Collins, S. J. (1987) Blood 70:1273). Human umbilical vein endothelial cells (HUVEC) maintained in culture third passage were obtained from Dr. M. Gimbrone (Brigham and Women's Hospital Department of Pathology).
Ligand binding. ^3H-LXA4 and ^3H-LTB4 binding was performed essentially as in Fiore, S. et al.(1992) J. Biol. Chem. 267:16168. After suspending cells in Tris buffer 10 mM (pH 7.4, Ca^2+ 2.5 mM, Mg^2+ 1.2 mM), aliquots (0.5 ml) were incubated (20 min at 4° C.) with ^3H- ligands alone (0.3 nM) or in the presence of increasing concentrations of homoligands or other compounds (3-300 nM). The incubations were rapidly centrifuged (60 sec, 12,000 g) on silicon oil (d=1.028), and cell-associated radioactivity was determined by liquid scintillation counting (Wallac 1409, Pharmacia, Piscataway, N.J.). Binding experiments with HUVEC cells were performed in 12 well plates with 3.5×10^5 cells/well. After 10 min, wells were washed twice with PBS and cell-associated label was recovered by adding glacial acetic acid (0.5 ml). Results obtained from these assays were submitted for further analysis using the Ligand program (Elsevier-Biosoft, Cambridge, UK).

[2] = tested on: human skin fibroblasts; assay: Fibroblast proliferation, MTT assay; type: cell-based; details: 100 nM, n=3
Description: Human type II epithelial A549 cells from human lung carcinoma and normal human skin fibroblast (breast) were obtained from the American Type Culture Collection (Rockville, Md.). The A549 cell line originated from a human alveolar cell carcinoma and was a useful cell line because it was easily assessable and could be maintained in culture without contaminating tissue macrophages. (Lieber, M., et al (1976) A continuous tumor-cell line from a human lung carcinoma with properties of type II alveolar epithelial cells. Int. J Cancer Fibroblasts were utilized within their limited window of viability and their passage numbers were recorded (results are reported for cells from 3-5 passages). Epithelial A549 cells were seeded into T-75 cm^2 tissue culture flasks and maintained in F-12K medium supplemented with 10% heat-inactivated FBS, penicillin (50 U/mL) and streptomycin (50 (g/mL). Human PMN from healthy donors who had not taken ASA or other medications for at least two weeks were obtained by Ficoll-Hypaque gradient centrifugation and dextran sedimentation, (Böyum A. (1968) Isolation of mononuclear cells and granulocytes from human blood. […] Viability of A549 cells and PMN was determined by their ability to exclude trypan blue and were 95±2 and 97±1%, respectively.
A microculture 3,(4,5-dimethylthiazoyl-2-yl) 2,5 (diphenyl-tetrazolium bromide) (MTT) assay, (Marshall, N. J., et al. (1995) A critical assessment of the use of microculture tetrazolium assays to measure cell growth and function. Growth Regul. 5: 69-84.), was used to examine the actions of LXs and other eicosanoids on cell proliferation. A549 cells and fibroblasts from exponential-phase maintenance cultures were counted and dispensed within replicate 96-well culture plates in 100 μl volumes of medium (˜2000 cells/well). […] Dye solution was aspirated, wells were washed once with HBSS and dye taken up by the cells was extracted in 100 μl of isopropyl alcohol:1 N HCl (96:4, v/v) and quantitated at 570 nm using a microplate reader (Molecular Devices, Menlo Park, Calif.). […]

[3] = tested on: A549 cells; assay: A549 cell proliferation, MTT assay; type: cell-based, human
Protocol: A microculture 3,(4,5-dimethylthiazoyl-2-yl) 2,5 (diphenyl-tetrazolium bromide) (MTT) assay, (Marshall, N. J., et al. (1995) A critical assessment of the use of microculture tetrazolium assays to measure cell growth and function. Growth Regul. 5: 69-84.), was used to examine the actions of LXs and other eicosanoids on cell proliferation. A549 cells and fibroblasts from exponential-phase maintenance cultures were counted and dispensed within replicate 96-well culture plates in 100 μl volumes of medium (˜2000 cells/well). Following 24 hours at 37° C., the culture medium was removed, and fresh medium (100 μl) containing either the compounds (5-1000 nM) or vehicle (medium plus 0.15% ethanol) was added to 4 replicates for each condition studied and the culture plates were then incubated for up to 96 hours at 37° C. in a 5% CO2 atmosphere. At the end of this period, 25 μl of freshly prepared MTT in HBSS (5 mg/ml) was added to the wells and the plates were incubated for 4 hours at 37° C. Dye solution was aspirated, wells were washed once with HBSS and dye taken up by the cells was extracted in 100 μl of isopropyl alcohol:1 N HCl (96:4, v/v) and quantitated at 570 nm using a microplate reader (Molecular Devices, Menlo Park, Calif.). In some experiments, cells were grown in 12-well culture plates, treated as above and enumerated using a Neubauer hemocytometer. Viability was assessed routinely using trypan blue exclusion assay. For the A549 cells and fibroblasts, a linear relation was established for the MTT values and cell number within the range of the experiments shown (r=0.995, P<0.005). A549 cells grown for 72 hours in the presence of the compounds (5-1000 nM) or vehicle (0.15% EtOH) were lysed with 0.25 N NaOH and the cellular protein content was determined by applying the Bio-Rad (Richmond, Calif.) microassay method using bovine serum albumin as standard. The mean cellular protein content in resting A549 cells was 46.6±1.5 pg/cell.

## CCCCC[C@H](O)[C@H](O)/C=C/C=C/C=C\C=C\[C@@H](O)CCCC(=O)O [LXB4, (5S, 14R, 15S)-trihydroxy-6E, 8Z, 10E, 12E-eicosatetraenoic acid]
[1]
  displacement of 3H-LXA4 specific binding: Neither LXB4, LTB4, nor trihydroxyheptanoic acid (methyl ester) (300 nM) were able to displace
[2]
  inhibition of proliferation of fibroblasts: 38.0%
[3]; 1 μM, after 72 and 96 hours of treatment
  inhibition of A549 cell proliferation over time: inhibited A549 cell proliferation
[3]; 10^−7 M, 72 hours at 37° C., mean ± SEM, 3 to 7 experiments
  % inhibition: 30.0 ± 8.5%
[3]; concentrations of 0.5 and 1 μM, 72 hours
  times more active than either LXA4 or dexamethasone: 3 times
[3]; equimolar levels (100 nM), Table 1
  inhibition proliferation: ~34%
